From patent publication US20170298051A1, “ACTIVATOR OF ADIPONECTIN RECEPTOR” (THE UNIVERSITY OF TOKYO, priority 2013, published 2017) come the findings set out here.

In the experiment the target is T1, AdipoR1 (Homo sapiens, UniProt Q96A54).
T1 sequence (Q96A54 1-375): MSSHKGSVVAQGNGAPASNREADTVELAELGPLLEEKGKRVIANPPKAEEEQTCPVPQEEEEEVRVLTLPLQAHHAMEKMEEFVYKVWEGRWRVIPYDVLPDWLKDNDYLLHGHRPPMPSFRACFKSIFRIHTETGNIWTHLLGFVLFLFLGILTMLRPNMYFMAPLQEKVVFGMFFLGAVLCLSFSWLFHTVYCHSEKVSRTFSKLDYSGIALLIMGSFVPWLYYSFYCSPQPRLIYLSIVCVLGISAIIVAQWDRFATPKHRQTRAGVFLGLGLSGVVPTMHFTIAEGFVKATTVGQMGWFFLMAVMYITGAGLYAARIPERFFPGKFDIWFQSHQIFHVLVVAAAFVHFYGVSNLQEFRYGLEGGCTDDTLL
Description: Surface plasmon resonance, affinity for AdipoR1. In kind it is binding. The arrangement: made in house. The following applies: SPR. The protocol: Surface plasmon resonance measurements were performed by a BIAcore X100 system (GE Healthcare) and sensor chip SA (GE Healthcare). Human AdipoR1 and AdipoR2 were expressed with the baculovirus system, and purified to homogeneity. The AdipoR1 and AdipoR2 samples were then reconstituted into egg-phosphatidylcholine liposomes containing biotinyl phosphatidylethanolamine (Avanti), as previously reported^a. Mouse full-length adiponectin was generated as previously described^b,c,d,e. AdipoR1 and AdipoR2 were immobilized onto a sensor chip SA to levels of 2,500-3,000 response units (RU) using standard immobilization protocols (GE Healthcare).
Experiments were performed at 25° C. using AdipoRon (0.49-31.25 μM) and adiponectin (1.5 ng-3.75 μg) and using electrophoresis buffer (20 mM Hepes (pH 7.4), 200 mM NaCl, 10% glycerol, […] surfactant P20). Biacore X100 Evaluation Software was used to determine the equilibrium dissociation constant (KD) of the compound or proteins.
A general note: In SPR one partner is held on a chip, and binding of the other changes the refractive index at the surface.

What is called Kd is the concentration at which binding is half-saturated.

For the compound `O=C(COc1ccc(C(=O)c2ccccc2)cc1)NC1CCN(Cc2ccccc2)CC1` [Compound 73, 2-(4-benzoyl-phenoxy)-N-(1-benzylpiperidin-4-yl)acetamide], the Rmax was found to be 14.6 RU. In addition, the Kd (25° C., read-out: equilibrium dissociation constant (KD)) was found to be 1800 nM.
